Key:
hACC2 = target: T1, hACC2 (Homo sapiens, UniProt O00763); assay: [14C]bicarbonate incorporation assay, overall ACC activity; format: biochemical; conditions: recombinant hACC2, overall ACC activity
T1 construct: delete amino acids 1-148 and add Met-Gly in front of Lys149 in the final product; His tag (C); made in house; host or cells: baculovirus, Sf9 insect cells
Summary of the method: (§1)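 His-tagged full-length hACC1 or hACC2 (residues 1-148 deleted, Met-Gly added), expressed in sf9 cells with biotin and purified, were assayed by [14C]bicarbonate incorporation into acetyl-CoA. Reactions at pH 7.4 with 2 mM acetyl-CoA, 12 mM NaHCO3 and 1% DMSO were started with 2 mM ATP and run 10 min at 37° C. Acid-stable label was counted and IC50 obtained from dose-response fits.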

hACC1 = target: T2, hACC1 (Homo sapiens, UniProt Q13085); assay: as above; format: biochemical; conditions: recombinant hACC1, overall ACC activity
T2 construct: PCR primers were designed for full-length hACC1 and hACC2 using GenBank submissions AY237919 and AJ575592, respectively; His tag (C); made in house; host or cells: baculovirus, Sf9 insect cells
Summary of the method: as §1

[1] = tested on: A2780 human ovary cancer cells; assay: MTT Cell Proliferation Assay; format: cell-based; conditions: 72 hours, read-out: Percent of Control A2780
Description: (§2) The anti-proliferative activity of test compounds against human tumor cell lines is evaluated in vitro using the ATCC's MTT Cell Proliferation Assay (Catalog No. 30-100K). Cell lines are grown using media, serum, and culture conditions recommended by the ATCC. Stock cultures are allowed to grow to 70-80% confluence. Cells are seeded into 96-well culture plates at a predetermined density on day 0 in complete medium (0.1 mL). Plates are placed in a humidified incubator at 37° C. with 5% CO2 and 95% HEPA filtered room air for 24 hours. At this point compound (0.1 mL of 2× stock (in media)) is added to the indicated wells and the plates are returned to the incubator for 72 hours. Cell proliferation is measured by addition of MTT reagent to each well and incubated for an additional 4 hours, followed by addition of cell lysis/MTT solublization reagent and incubating overnight. […] Results are expressed as percent of control cells versus compound concentration. Compounds of the present invention, and salts thereof, were evaluated for anti-proliferative activity as described above.

[2] = tested on: PC-3 human prostate cancer cells; assay: MTT Cell Proliferation Assay; format: cell-based; conditions: 72 hours, read-out: Percent of Control PC-3
Description: as §2

[3] = tested on: MDA-MB-231 human breast cancer cells; assay: MTT Cell Proliferation Assay; format: cell-based; conditions: 72 hours, read-out: Percent of Control MDA-MB-231
Description: as §2

[4] = tested on: HCT-116 human colon cancer cells; assay: MTT Cell Proliferation Assay; format: cell-based; conditions: 72 hours, read-out: Percent of Control HCT-116
Description: as §2

[5] = tested on: hepatic fatty acid synthesis; assay: In vivo inhibition of rat hepatic fatty acid synthesis; conditions: oral
Description: In vivo measurement of fatty acid synthesis inhibition in mammals. Incorporation of [2-^14C]acetate into saponifiable lipids in the livers of mammals (e.g. Sprague Dawley rats, Charles River Laboratories, Boston, Mass. or Harlan Laboratories, Indianapolis, Ind.) can be measured as described previously (Harwood Jr. H. J. et al., J Biol Chem, 39: 37099-37111 (2003)). For example, animals given food and water ad libitum are treated orally at volume of 1.0 ml/200 g of body weight with either an aqueous solution containing 0.5% methyl cellulose (vehicle) or an aqueous solution containing 0.5% methyl cellulose containing test compound. One hour after compound administration, animals receive an intraperitoneal injection of [2-^14C]acetate (0.02 mL, 1 mCi/mL; 50 mCi/mmol. One hour after radiolabel administration, animals are sacrificed by CO2 asphyxiation, and two liver pieces (about 0.75 g each) are removed and saponified at 70° C. for 120 min in 2.5 M NaOH (1.5 mL). After saponification, absolute EtOH (2.5 mL) is added to each sample and the solutions are mixed and allowed to stand overnight. Petroleum ether (4.8 mL) is then added to each sample, and after vigorous shaking (2 min) the mixtures are centrifuged at 1000×g (5 min). The petroleum ether layer containing the nonsaponifiable lipids is removed and discarded. The remaining aqueous layer is acidified (pH<2) by addition of 12 M HCl (0.6 mL) and extracted two times with petroleum ether (4.8 mL). The pooled organic fractions are transferred to liquid scintillation vials, dried under nitrogen, dissolved in Aquasol scintillation fluid (7 ml), and radioactivity is quantified by liquid scintillation counting. Inhibition of fatty acid synthesis by the test compound is expressed as a relative percent inhibition of measured incorporation of [2-^14C]acetate into saponifiable lipids during the interval between [2-^14C]acetate injection and CO2 asphyxiation in animals receiving test compound, compared to control animals receiving only the vehicle.
Compounds of the present invention, and salts thereof, were evaluated for inhibition of fatty acid synthesis as described above.

HepG2 cells = assay: Fatty acid synthesis assay, 14C-acetate incorporation into phospholipids; format: cell-based; conditions: Homo sapiens, 24 h, read-out: inhibition of radiolabel incorporation into phospholipids
Source text: (§3) The in vivo ACC inhibitory activity of compounds in this invention can be confirmed in cultured cells using standard procedures that are well known to those skilled in the art. For example, since ACC catalyzes the first committed step in fatty acid biosynthesis, the in vivo activity of compounds can be confirmed by measuring their ability to prevent the formation of radiolabeled fatty acids from radiolabeled acetate in cultured human hepatoma cells (HepG2). In addition, since the malonyl-CoA produced by ACC inhibits fatty acid oxidation, the in vivo ACC inhibitory activity of compounds can be further confirmed by measuring the stimulation of fatty acid oxidation in cultured mouse myoblast cells (C2C12).
Fatty acid synthesis assays are performed with slight modifications to published procedures (Beckers et al., Cancer Res, 2007, 67: 8180-8187; Wang, J Lipid Res., 2006, 47:2028-41). Briefly, HepG2 cells are grown in Dulbecco's modified eagles medium containing 10% fetal calf serum in 6-well culture plates. Cells are treated for 24 h with test compounds added as DMSO stock solutions to a final DMSO concentration of 0.5% (v/v). After test compound incubation, ^14C—[2]-acetate is added (3 μCi/6 well plate) and cells are further incubated for 4 hrs. Cells are then harvested in 40% methanol and assayed for total protein. Total lipids are extracted with chloroform:methanol (2:1) and ^14C-radioactivity is quantified in the aqueous and organic phases. Total lipids in the organic phase are separated by thin-layer chromatography (TLC, silica gel 60A) using hexane:ether:acetic acid (90:30:1) as the mobile phase. Radioactivity distribution of lipid classes on TLC plates is quantified by phosphorimaging (Molecular Dynamics Storm 820). Compound 6 inhibited radiolabel incorporation into phospholipids 32% and 14% at 10 μM and 1 μM, respectively, while Compound 2 inhibited radiolabel incorporation into phospholipids 93% and 42% at 10 μM and 1 μM, respectively.

C2C12 cells = assay: Fatty acid oxidation assay, [1-14C]palmitate to CO2; format: cell-based, mouse; conditions: compared to untreated controls
Source text: as §3
Fatty acid oxidation assays are performed essentially as described (Beckers et al., Cancer Res, 2007, 67: 8180-8187). Briefly, C2C12 cells are plated at 600,000 cells/T25 flask. The next day, media is changed and the DMSO with or without test compound is added to a final concentration of 0.5% (v/v). After 1 h at 37° C. in atmosphere of 5% CO2, freshly made 2 uCi of FA-free bovine serum albumin-[1-^14C] palmitate complex is added to each flask. The flasks are then sealed with a stopper and incubated 6 h at 37° C. after which evolved CO2 is liberated by injection of perchloric acid to final concentration of 5% and captured by incubating the flasks overnight in the presence of filter paper soaked with 5% KOH. The filters are then air-dried and incubated with scintillation cocktail overnight for equilibrium. Radioactivity is quantified by scintillation counting.

[6] = target: uACC (Ustilago maydis ACC) (Ustilago maydis, UniProt A0A0D1DYD5); assay: [14C]bicarbonate incorporation assay, overall ACC activity; format: biochemical
Chain of uACC (Ustilago maydis ACC) (A0A0D1DYD5 entry or part of it): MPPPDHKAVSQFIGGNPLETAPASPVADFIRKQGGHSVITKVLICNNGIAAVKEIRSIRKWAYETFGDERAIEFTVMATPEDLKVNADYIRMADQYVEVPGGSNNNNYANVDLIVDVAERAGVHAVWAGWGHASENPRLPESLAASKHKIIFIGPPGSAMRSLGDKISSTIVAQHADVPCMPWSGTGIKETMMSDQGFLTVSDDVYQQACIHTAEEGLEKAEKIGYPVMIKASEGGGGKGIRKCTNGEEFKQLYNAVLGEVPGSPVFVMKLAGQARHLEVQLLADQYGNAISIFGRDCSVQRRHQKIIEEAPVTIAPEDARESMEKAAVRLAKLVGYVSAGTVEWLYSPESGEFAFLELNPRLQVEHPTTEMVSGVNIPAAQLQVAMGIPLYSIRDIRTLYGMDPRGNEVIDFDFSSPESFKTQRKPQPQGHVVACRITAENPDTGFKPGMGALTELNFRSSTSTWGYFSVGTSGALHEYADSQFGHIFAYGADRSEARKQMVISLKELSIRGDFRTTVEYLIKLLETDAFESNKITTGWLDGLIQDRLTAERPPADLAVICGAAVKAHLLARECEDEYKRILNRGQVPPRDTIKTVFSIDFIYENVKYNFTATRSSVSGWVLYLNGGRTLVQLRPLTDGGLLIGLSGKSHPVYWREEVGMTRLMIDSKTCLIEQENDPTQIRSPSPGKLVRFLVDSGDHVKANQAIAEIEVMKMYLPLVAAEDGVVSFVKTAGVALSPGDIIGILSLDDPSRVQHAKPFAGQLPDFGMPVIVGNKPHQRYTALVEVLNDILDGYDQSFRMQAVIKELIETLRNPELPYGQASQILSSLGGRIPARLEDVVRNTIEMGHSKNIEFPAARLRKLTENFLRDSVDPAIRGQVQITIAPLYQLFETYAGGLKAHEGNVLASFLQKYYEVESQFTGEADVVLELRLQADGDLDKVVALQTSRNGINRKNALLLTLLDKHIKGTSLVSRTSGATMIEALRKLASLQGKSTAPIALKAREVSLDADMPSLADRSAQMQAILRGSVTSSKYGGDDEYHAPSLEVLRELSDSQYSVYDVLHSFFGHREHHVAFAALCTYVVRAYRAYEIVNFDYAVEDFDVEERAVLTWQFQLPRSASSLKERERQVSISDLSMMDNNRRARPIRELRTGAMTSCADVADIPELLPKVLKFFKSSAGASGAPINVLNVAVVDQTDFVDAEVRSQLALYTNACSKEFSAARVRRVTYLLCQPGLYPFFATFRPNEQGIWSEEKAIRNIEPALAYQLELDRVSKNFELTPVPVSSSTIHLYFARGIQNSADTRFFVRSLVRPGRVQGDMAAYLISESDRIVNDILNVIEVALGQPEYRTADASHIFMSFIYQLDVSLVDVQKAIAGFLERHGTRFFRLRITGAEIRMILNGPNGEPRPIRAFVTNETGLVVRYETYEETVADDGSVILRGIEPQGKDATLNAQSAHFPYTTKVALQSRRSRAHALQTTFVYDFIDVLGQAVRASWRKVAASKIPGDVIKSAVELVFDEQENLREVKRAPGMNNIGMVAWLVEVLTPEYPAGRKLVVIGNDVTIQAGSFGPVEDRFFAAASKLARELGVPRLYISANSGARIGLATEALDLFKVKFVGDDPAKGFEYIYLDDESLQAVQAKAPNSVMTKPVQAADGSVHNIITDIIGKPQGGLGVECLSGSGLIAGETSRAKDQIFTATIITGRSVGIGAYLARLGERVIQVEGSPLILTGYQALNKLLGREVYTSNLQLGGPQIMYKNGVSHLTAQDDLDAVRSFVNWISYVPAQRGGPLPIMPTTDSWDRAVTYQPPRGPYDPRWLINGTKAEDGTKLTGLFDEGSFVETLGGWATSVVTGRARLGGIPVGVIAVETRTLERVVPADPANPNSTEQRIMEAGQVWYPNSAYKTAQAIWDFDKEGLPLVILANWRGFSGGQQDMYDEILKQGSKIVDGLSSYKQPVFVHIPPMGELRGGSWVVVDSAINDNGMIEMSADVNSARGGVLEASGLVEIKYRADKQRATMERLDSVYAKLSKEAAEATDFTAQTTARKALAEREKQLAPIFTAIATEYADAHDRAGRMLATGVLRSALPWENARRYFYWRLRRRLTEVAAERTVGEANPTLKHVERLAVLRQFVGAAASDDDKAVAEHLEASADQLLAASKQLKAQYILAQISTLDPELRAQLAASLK

hACC1-CT = target: T3, hACC1-CT (Homo sapiens, UniProt Q13085); assay: acetyl-CoA/malonyl-CoA isotope exchange assay, CT half-reaction; format: biochemical
T3 construct: PCR primers were designed for full-length hACC1 and hACC2 using GenBank submissions AY237919 and AJ575592, respectively; His tag (C); made in house; host or cells: baculovirus, Sf9 insect cells
Description: Overall ACC activity is comprised of two half-reactions, the BC reaction (the ATP-dependent carboxylation of biotin) and the CT reaction (the transfer of the carboxyl group from biotin to acetyl-CoA to form malonyl-CoA). Thus, it is of interest to localize the site of action of ACC inhibitors. To this end, representative compounds are tested in an acetyl-CoA/malonyl-CoA isotope exchange reaction which specifically measures the CT-half reaction. This assay is performed with slight modifications of published procedures (Gregolin et al., J Biol Chem, 1968, 243:4227-4235; Rendina et al., J Agric Food Chem, 1990, 38:1282-1287). Briefly, the reaction mixture (50 μL) contained 50 mM Hepes (pH 7.4), 20 mM K-citrate, 1.5 mM MgSO4, 4 mM malonyl-CoA, 1.67 mM acetyl-CoA, 0.34 mM [^14C]acetyl-CoA (about 60 mCi/mmol), 0.75 mg/mL BSA, and 1% (v/v) DMSO with or without inhibitor. Reactions are initiated by the addition of hACCl (0.3 μg) or hACC2 (0.15 μg) enzyme and incubated at 37° C. for 10 min. Reactions are stopped by addition of a 0.2M sodium arsenate solution containing 1U of phosphotransacetylase (13.5 μL) and incubation at room temperature for 30 min. […] The samples are then resuspended in water (200 μL), added to scintillation cocktail (3 mL), and counted in a scintillation counter to quantify radiolabel incorporated into malonyl-CoA. […]

T1 sequence (O00763 149-2458 limits assumed): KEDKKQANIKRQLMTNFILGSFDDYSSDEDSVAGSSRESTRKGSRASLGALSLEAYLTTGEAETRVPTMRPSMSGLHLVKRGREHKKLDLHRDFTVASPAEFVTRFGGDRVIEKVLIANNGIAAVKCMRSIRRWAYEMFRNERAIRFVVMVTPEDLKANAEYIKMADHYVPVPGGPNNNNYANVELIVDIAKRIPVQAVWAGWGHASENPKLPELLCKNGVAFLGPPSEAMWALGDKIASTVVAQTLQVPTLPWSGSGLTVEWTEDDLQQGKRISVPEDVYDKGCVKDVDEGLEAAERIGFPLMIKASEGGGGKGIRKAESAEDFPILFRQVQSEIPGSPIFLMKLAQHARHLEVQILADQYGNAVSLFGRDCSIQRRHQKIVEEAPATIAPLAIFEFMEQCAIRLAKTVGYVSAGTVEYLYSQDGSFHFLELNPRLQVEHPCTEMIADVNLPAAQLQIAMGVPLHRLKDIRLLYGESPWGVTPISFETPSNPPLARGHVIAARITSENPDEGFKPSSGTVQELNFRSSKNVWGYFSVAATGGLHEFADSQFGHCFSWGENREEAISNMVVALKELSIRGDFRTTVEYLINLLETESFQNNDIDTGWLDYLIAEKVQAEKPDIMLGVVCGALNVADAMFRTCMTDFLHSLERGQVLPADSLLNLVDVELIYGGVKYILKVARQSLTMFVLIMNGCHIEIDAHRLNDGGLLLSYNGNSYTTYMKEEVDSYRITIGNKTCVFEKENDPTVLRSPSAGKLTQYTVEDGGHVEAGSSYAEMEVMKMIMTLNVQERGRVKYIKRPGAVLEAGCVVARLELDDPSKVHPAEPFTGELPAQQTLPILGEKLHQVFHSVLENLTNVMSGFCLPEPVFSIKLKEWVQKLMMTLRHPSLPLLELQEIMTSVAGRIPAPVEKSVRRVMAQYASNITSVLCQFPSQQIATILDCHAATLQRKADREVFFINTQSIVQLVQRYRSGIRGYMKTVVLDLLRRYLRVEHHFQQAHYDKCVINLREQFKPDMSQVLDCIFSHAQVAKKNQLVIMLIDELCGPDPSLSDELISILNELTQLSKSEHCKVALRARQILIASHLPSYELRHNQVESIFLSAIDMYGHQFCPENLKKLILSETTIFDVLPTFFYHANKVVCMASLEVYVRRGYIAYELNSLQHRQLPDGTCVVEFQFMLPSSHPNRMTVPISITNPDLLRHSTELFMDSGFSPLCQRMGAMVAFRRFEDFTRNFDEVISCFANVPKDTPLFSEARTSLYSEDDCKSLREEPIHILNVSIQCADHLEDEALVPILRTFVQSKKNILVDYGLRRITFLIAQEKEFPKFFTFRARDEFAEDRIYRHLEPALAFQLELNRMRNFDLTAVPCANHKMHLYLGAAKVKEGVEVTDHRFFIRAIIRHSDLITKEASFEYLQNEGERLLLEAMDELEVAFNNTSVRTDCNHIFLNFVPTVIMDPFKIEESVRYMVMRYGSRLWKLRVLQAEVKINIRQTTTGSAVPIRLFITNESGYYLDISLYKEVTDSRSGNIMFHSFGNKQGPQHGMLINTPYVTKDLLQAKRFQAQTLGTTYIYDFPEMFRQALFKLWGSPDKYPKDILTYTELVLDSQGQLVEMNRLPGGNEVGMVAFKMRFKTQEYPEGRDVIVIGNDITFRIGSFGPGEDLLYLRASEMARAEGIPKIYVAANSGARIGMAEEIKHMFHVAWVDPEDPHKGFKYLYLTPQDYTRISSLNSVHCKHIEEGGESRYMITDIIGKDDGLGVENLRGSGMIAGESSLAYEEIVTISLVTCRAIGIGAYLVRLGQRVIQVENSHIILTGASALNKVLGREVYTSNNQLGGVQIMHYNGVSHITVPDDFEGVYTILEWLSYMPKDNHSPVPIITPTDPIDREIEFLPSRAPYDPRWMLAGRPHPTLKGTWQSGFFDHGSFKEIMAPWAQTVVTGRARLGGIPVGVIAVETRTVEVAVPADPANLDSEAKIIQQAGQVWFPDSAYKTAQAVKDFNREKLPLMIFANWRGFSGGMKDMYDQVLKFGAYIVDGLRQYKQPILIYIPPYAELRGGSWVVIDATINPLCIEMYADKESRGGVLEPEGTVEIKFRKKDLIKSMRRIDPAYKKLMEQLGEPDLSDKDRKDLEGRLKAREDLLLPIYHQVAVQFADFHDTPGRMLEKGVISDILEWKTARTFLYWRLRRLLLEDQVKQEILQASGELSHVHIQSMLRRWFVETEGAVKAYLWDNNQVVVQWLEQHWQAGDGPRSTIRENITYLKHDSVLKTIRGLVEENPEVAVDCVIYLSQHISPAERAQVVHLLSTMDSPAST

SMILES	IC50 (hACC2)	IC50 (hACC1)	activity at 3.3 µM [1]	activity at 10 µM [1]	activity at 3.3 µM [2]	activity at 10 µM [2]	activity at 3.3 µM [3]	activity at 10 µM [3]	activity at 3.3 µM [4]	activity at 10 µM [4]	Percent Inhibition at 10 mg/Kg [5]	inhibition at 1 µM (HepG2 cells; HepG2, 1 μM)	inhibition at 10 µM (HepG2 cells; HepG2, 10 μM)	stimulation of fatty acid oxidation (C2C12 cells; C2C12, 0.2 μM)	stimulation of fatty acid oxidation (C2C12 cells; C2C12, 2 μM)	IC50 [6]	Percent Inhibition at 30 mg/Kg [5]	IC50 (hACC1-CT)
COc1cc(C(=O)N2CCC3(CC2)NC(=O)c2cc(N4CCOCC4)ccc2O3)nc2c(OC)cccc12 [Compound 196]	21 nM	200 nM	81.6%	56.4%	50.7%	39%	73.7%	56.1%	63.6%	58.5%	67%	–	–	–	–	–	–	–
Cc1c(C(=O)N2CCC3(CC2)NC(=O)c2ccccc2O3)[nH]c2ccc(F)cc12 [Compound 6, 1′-[(5-Fluoro-3-methyl-1H-indol-2-yl)carbonyl]spiro[2H-1,3-benzoxazin-2,4′-piperidin]-4-(3H)-one]	2000 nM	2300 nM	–	–	–	–	–	–	–	–	–	14%	32%	260%	299%	40000 nM	–	–
CCOc1ccc2c(c1)C(=O)NC1(CCN(C(=O)c3[nH]c4c(OC)cccc4c3C)CC1)O2 [Compound 144]	88 nM	61 nM	65%	25.1%	76.5%	67.2%	88.9%	34.5%	64.9%	39.1%	–	–	–	–	–	14000 nM	9%	–
COc1cc(C(=O)N2CCC3(CC2)NC(=O)c2cc(OC(F)(F)F)ccc2O3)nc2c(OC)cccc12 [Compound 172]	–	7 nM	97.4%	65.5%	63%	55.7%	54.1%	29.5%	61.4%	41.6%	5%	–	–	–	–	–	–	–
COc1ccc(OC)c2[nH]c(C(=O)N3CCC4(CC3)NC(=O)c3ccccc3O4)cc12 [Compound 7, 1′-[(4,7-Dimethoxy-1H-indol-2-yl)carbonyl]spiro[2H-1,3-benzoxazin-2,4′-piperidin]-4-(3H)-one]	850 nM	1100 nM	–	–	–	–	–	–	–	–	–	–	–	–	–	20000 nM	–	1200 nM
COc1cc(C(=O)N2CCC3(CC2)NC(=O)c2cc(C(C)C)ccc2O3)nc2c(OC)cccc12 [Compound 186]	2 nM	2 nM	59.5%	52.1%	48.9%	33.2%	74.2%	39.2%	53.6%	41.8%	55%	–	–	–	–	–	78%	–

From US8110570B2, “Modulators of acetyl-coenzyme A carboxylase and methods of use thereof” (Cropsolution, Inc., priority 2008, dated 2012)
